Experimental data taken from ChEMBL document CHEMBL2203248, “Identification of novel series of pyrazole and indole-urea based DFG-out PYK2 inhibitors” (Bioorg Med Chem Lett, 2012).

Assays:
[1] = Oral bioavailability in Wistar Han rat at 30 mg/kg; assay type: ADME, organism-based; details: in vivo
Rattus norvegicus [2] = experiment: fCmax in Wistar Han rat at 30 mg/kg, po; assay type: ADME, organism-based; design: dose 30 mg/kg, route oral; details: in vivo
[3] = Cmax in Wistar Han rat at 30 mg/kg, po; assay type: ADME, organism-based; design: dose 30 mg/kg, route oral; details: in vivo
[4] = Volume of distribution at steady state in Wistar Han rat at 1 mg/kg, iv; assay type: ADME, organism-based; design: dose 1 mg/kg, route intravenous; details: in vivo, read-out: Vdss
[5] = Plasma clearance in Wistar Han rat at 1 mg/kg, iv; assay type: ADME, organism-based; design: dose 1 mg/kg, route intravenous
[6] = Clearance in human liver microsomes at 1 uM after 40 mins by HPLC-MS analysis; assay type: ADME, Microsome; details: read-out: CLH
[7] = Terminal elimination half life in Wistar Han rat at 1 mg/kg, iv; assay type: ADME, organism-based; design: dose 1 mg/kg, route intravenous; details: in vivo, read-out: beta t1/2 (converted)
[8] = Lipophilicity, log D of the compound at pH 7.4; assay type: physicochemical; details: buffer
Rattus norvegicus [9] = experiment: fCmax in Wistar Han rat at 100 mg/kg, po; assay type: ADME, organism-based; design: dose 100 mg/kg, route oral; details: in vivo
[10] = Cmax in Wistar Han rat at 100 mg/kg, po; assay type: ADME, organism-based; design: dose 100 mg/kg, route oral; details: in vivo
[11] = Terminal elimination half life in Wistar Han rat at 100 mg/kg, po; assay type: ADME, organism-based; design: dose 100 mg/kg, route oral; details: in vivo, read-out: beta t1/2 (converted)

CLint scaled at 1 µM [6]	logD [8]	Compound	other results
31 mL/min/kg		CCOCCCNC(=O)c1cc2cccc(NC(=O)Nc3cc(C(C)(C)C)nn3-c3ccc(C)cc3)c2[nH]1	bioavailability [1]: 1.6%; fCmax (Rattus norvegicus [2]): 42 nM; Cmax [3]: 0.621 µM; Vd [4]: 0.7 L/kg; clearance [5]: 4.8 mL/min/kg; half-life [7]: 4.1 h
77 mL/min/kg		Cc1ccc(-n2nc(C(C)(C)C)cc2NC(=O)Nc2cccc3cc(C(=O)N4CCCC4)[nH]c23)cc1	
92 mL/min/kg		Cc1ccc(-n2nc(C(C)(C)C)cc2NC(=O)Nc2cc(-c3ccc4c(c3)OCCO4)[nH]n2)cc1	
28 mL/min/kg	4.9	CNC(=O)c1cc2cccc(NC(=O)Nc3cc(C(C)(C)C)nn3-c3ccc(C)cc3)c2[nH]1	
20 mL/min/kg	3.8	Cc1ccc(-n2nc(C(C)(C)C)cc2NC(=O)Nc2cc(-c3ccc(=O)n(C)c3)n[nH]2)cc1	
48 mL/min/kg	4.9	COc1ccc(-c2cc(NC(=O)Nc3cc(C(C)(C)C)nn3-c3ccc(C)cc3)n[nH]2)cn1	
129 mL/min/kg		COc1ccc(-c2cc(NC(=O)Nc3cc(C(C)(C)C)nn3-c3ccc(C)cc3)n[nH]2)c(C)c1	
16 mL/min/kg		Cc1ccc(-n2nc(C(C)(C)C)cc2NC(=O)Nc2cc(-c3ccc(O)nn3)[nH]n2)cc1	
53 mL/min/kg		Cc1ccc(-n2nc(C(C)(C)C)cc2NC(=O)Nc2cccc3cc(C(=O)N(C)CCc4ccccn4)[nH]c23)cc1	bioavailability [1]: 69%; fCmax (Rattus norvegicus [2]): 25 nM; Cmax [3]: 38.3 µM; Vd [4]: 0.4 L/kg; clearance [5]: 3.2 mL/min/kg; half-life [7]: 2.2 h
11.9 mL/min/kg	3.7	Cc1ccc(-n2nc(C(C)(C)C)cc2NC(=O)Nc2cc(-c3ccc(=O)[nH]c3)n[nH]2)cc1	
53 mL/min/kg		Cc1ccc(-n2nc(C(C)(C)C)cc2NC(=O)Nc2cccc3cc(C(=O)N4CCC5(CCNC5)C4)[nH]c23)cc1 (stereo not given)	
93 mL/min/kg	5.3	Cc1ccc(-n2nc(C(C)(C)C)cc2NC(=O)Nc2cccc3cc(C(=O)NC(C)C)[nH]c23)cc1	
44 mL/min/kg	4.5	Cc1ccc(-n2nc(C(C)(C)C)cc2NC(=O)Nc2cc(-c3ccc4nccn4c3)[nH]n2)cc1	
55 mL/min/kg	5.2	Cc1ccc(-n2nc(C(C)(C)C)cc2NC(=O)Nc2cc(-c3ccc4ncccc4c3)n[nH]2)cc1	bioavailability [1]: 47%; fCmax (Rattus norvegicus [2]): 184 nM; Cmax [3]: 61.3 µM; Vd [4]: 0.15 L/kg; clearance [5]: 2 mL/min/kg; half-life [7]: 2 h
149 mL/min/kg	4.7	Cc1ccc(-n2nc(C(C)(C)C)cc2NC(=O)Nc2cc(-c3ccc4nccnc4c3)[nH]n2)cc1	fCmax (Rattus norvegicus [9]): 1.1 nM; Cmax [10]: 0.068 µM; half-life [11]: 7.3 h
109 mL/min/kg		Cc1ccc(-n2nc(C(C)(C)C)cc2NC(=O)Nc2cc(COc3cccnc3)n[nH]2)cc1	
